# Columns and labels:
# [1] = tested on: S. aureus DSM 20231; assay: Bliss interaction score (quartile over a dose matrix) (fitness difference); higher = more antagonism (negative = synergy)
# Method in brief: (§1)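 Fitness here means normalised growth, inferred for single drugs from the combination data. Growth was OD595 at entry into stationary phase, divided by the plate's robust no-drug mean and capped at 1. The Bliss score is observed minus expected fitness, with the expectation being the product, and its quartiles span technical, biological and donor/recipient replicates.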
# [2] = tested on: S. pneumoniae D39V; assay: as above
# Method in brief: as §1
# [3] = tested on: B. subtilis 168; assay: as above
# Method in brief: as §1
# [4] = tested on: S. aureus Newman; assay: as above
# Method in brief: as §1
# [5] = tested on: S. pneumoniae D39V; assay: fitness (endpoint OD595 vs no drug) (fraction); higher = more growth
# Method in brief: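 Fitness expresses the optical density reached at the stationary-phase transition as a fraction of the robust mean of no-drug control wells. It is capped at 1. Measurements were OD595 every 30 min for 14 h at 37 °C after inoculation of 384-well plates at OD595 0.01 (30 µl, or 55 µl for S. pneumoniae), minus the first reading.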
# 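Wherever Bliss interaction score (quartile over a dose matrix) is given: first quartile when negative (synergy) and third quartile when positive (antagonism).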
# 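Wherever fitness (endpoint OD595 vs no drug) is given: OD595 on entry to stationary phase over no-drug wells; at most 1.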
smiles,measurement,setting,value
O=C(O[C@@H]1Cc2c(O)cc(O)cc2O[C@@H]1c1cc(O)c(O)c(O)c1)c1cc(O)c(O)c(O)c1 [EGCG] + CO[C@H]1/C=C/O[C@@]2(C)Oc3c(C)c(O)c4c(O)c(c(/C=N/N5CCN(C)CC5)c(O)c4c3C2=O)NC(=O)/C(C)=C\C=C\[C@H](C)[C@H](O)[C@@H](C)[C@@H](O)[C@@H](C)[C@H](OC(C)=O)[C@@H]1C [Rifampicin],Bliss interaction score,[1],-0.0623
same,Bliss interaction score,[2],-0.0502
same,Bliss interaction score,[3],0.0434
same,Bliss interaction score,[4],-0.0254
same,fitness,"[5]; first compound 12.5 µg/mL, partner 0.025 µg/mL",0.923
same,fitness,"[5]; first compound 12.5 µg/mL, partner 0.05 µg/mL",0.931
same,fitness,"[5]; first compound 12.5 µg/mL, partner 0.2 µg/mL, one replicate",0
same,fitness,"[5]; first compound 25 µg/mL, partner 0.025 µg/mL",0.925
same,fitness,"[5]; first compound 25 µg/mL, partner 0.2 µg/mL, one replicate",0
same,fitness,"[5]; first compound 50 µg/mL, partner 0.025 µg/mL",≥ 1
same,fitness,"[5]; first compound 50 µg/mL, partner 0.05 µg/mL",0.942
same,fitness,"[5]; first compound 50 µg/mL, partner 0.1 µg/mL",0.496
same,fitness,"[5]; first compound 50 µg/mL, partner 0.2 µg/mL, one replicate",0
C[C@@H](O)[C@H]1C(=O)N2C(C(=O)O)=C(SCCNC=N)C[C@H]12 [Imipenem] + CN(C)C(=O)C(CCN1CCC(O)(c2ccc(Cl)cc2)CC1)(c1ccccc1)c1ccccc1 [Loperamide],Bliss interaction score,[1],0.0662
same,Bliss interaction score,[2],0.0901
same,Bliss interaction score,[3],-0.203
same,Bliss interaction score,[4],0.0304
same,fitness,"[5]; first compound 0.005 µg/mL, partner 17.14 µg/mL",0.926
same,fitness,"[5]; first compound 0.005 µg/mL, partner 34.28 µg/mL",0.907
same,fitness,"[5]; first compound 0.005 µg/mL, partner 68.57 µg/mL, one replicate",0.935
same,fitness,"[5]; first compound 0.0065 µg/mL, partner 20 µg/mL",≥ 1
same,fitness,"[5]; first compound 0.0065 µg/mL, partner 40 µg/mL",≥ 1
same,fitness,"[5]; first compound 0.0065 µg/mL, partner 80 µg/mL",0.582
same,fitness,"[5]; first compound 0.01 µg/mL, partner 17.14 µg/mL",0.937
same,fitness,"[5]; first compound 0.01 µg/mL, partner 34.28 µg/mL",0.947
same,fitness,"[5]; first compound 0.01 µg/mL, partner 68.57 µg/mL, one replicate",0.93
same,fitness,"[5]; first compound 0.013 µg/mL, partner 20 µg/mL",≥ 1
same,fitness,"[5]; first compound 0.013 µg/mL, partner 40 µg/mL",≥ 1
same,fitness,"[5]; first compound 0.013 µg/mL, partner 80 µg/mL",0.582
same,fitness,"[5]; first compound 0.02 µg/mL, partner 17.14 µg/mL",0.952
same,fitness,"[5]; first compound 0.02 µg/mL, partner 34.28 µg/mL",0.942
same,fitness,"[5]; first compound 0.02 µg/mL, partner 68.57 µg/mL, one replicate",0.94
same,fitness,"[5]; first compound 0.026 µg/mL, partner 20 µg/mL",0.986
same,fitness,"[5]; first compound 0.026 µg/mL, partner 40 µg/mL",0.988
same,fitness,"[5]; first compound 0.026 µg/mL, partner 80 µg/mL",0.625
C[C@@H](O)[C@H]1C(=O)N2C(C(=O)O)=C(SCCNC=N)C[C@H]12 [Imipenem] + Cc1ncc([N+](=O)[O-])n1CCO [Metronidazole],Bliss interaction score,[1],0.0365
same,Bliss interaction score,[2],0.0768
same,Bliss interaction score,[3],0.0502
same,Bliss interaction score,[4],-0.0547
same,fitness,"[5]; first compound 0.005 µg/mL, partner 1.073 µg/mL",0.961
same,fitness,"[5]; first compound 0.005 µg/mL, partner 2.145 µg/mL",0.872
same,fitness,"[5]; first compound 0.005 µg/mL, partner 4.29 µg/mL",0.908
same,fitness,"[5]; first compound 0.0065 µg/mL, partner 1.25 µg/mL",0.991
same,fitness,"[5]; first compound 0.0065 µg/mL, partner 2.5 µg/mL",0.988
same,fitness,"[5]; first compound 0.0065 µg/mL, partner 5 µg/mL",0.99
same,fitness,"[5]; first compound 0.01 µg/mL, partner 1.073 µg/mL",0.945
same,fitness,"[5]; first compound 0.01 µg/mL, partner 2.145 µg/mL",0.737
same,fitness,"[5]; first compound 0.01 µg/mL, partner 4.29 µg/mL",0.903
same,fitness,"[5]; first compound 0.013 µg/mL, partner 1.25 µg/mL",0.995
same,fitness,"[5]; first compound 0.013 µg/mL, partner 2.5 µg/mL",≥ 1
same,fitness,"[5]; first compound 0.013 µg/mL, partner 5 µg/mL",0.969
same,fitness,"[5]; first compound 0.02 µg/mL, partner 1.073 µg/mL",0.919
same,fitness,"[5]; first compound 0.02 µg/mL, partner 2.145 µg/mL",0.886
same,fitness,"[5]; first compound 0.02 µg/mL, partner 4.29 µg/mL",0.903
same,fitness,"[5]; first compound 0.026 µg/mL, partner 1.25 µg/mL",0.985
same,fitness,"[5]; first compound 0.026 µg/mL, partner 2.5 µg/mL",0.984
same,fitness,"[5]; first compound 0.026 µg/mL, partner 5 µg/mL",0.961

# From the supplement of paper PMC10627819
